Tested on: 883617-216-R-J1-PDC complex spheroids, growth, % test/control
Assay: Anticancer human tumor 883617-216-R-J1-PDC patient-derived bladder carcinoma cell line growth inhibition [AhR]
Conditions: for IC50: curve of first compound; for viability, T/C: stronger effect = lower value
From the text: Multicellular complex tumor spheroid response to aryl hydrocarbon receptor antagonists in combination with a variety of drugs and investigational agents in selected tumor cell lines
The current study was undertaken to assess response to aryl hydrocarbon receptor antagonists in combination with standard-of-care drugs and investigational agents in solid tumor complex spheroid models. Complex spheroids include a stromal component modeled by human endothelial cells (HUVEC) and fibroblasts modeled by human mesenchymal stem cells (MSCs). The concentration ranges selected for each drug and investigational agent were based upon clinically achievable concentrations if the clinical Cmax of the agent was known.
Compounds. The drugs and investigational agents: BAY 2416964 (NSC825713), GNF351 (NSC835774), CH-223191 (NSC835775), CPI-455 (NSC825282), aza-TdCyd (NSC777586), decitabine (NSC127716), belinostat (NSC758774), entinostat (NSC756642), pevonedistat (NSC761192), tazemetostat (NSC777109), talazoparib (NSC765396), olaparib (NSC753686), selinexor (NSC780203), nedisertib (M3814, NSC802822), bortezomib (NSC756655), venetoclax (NSC766270), doxorubicin (NSC123127), elimusertib (BAY189344, NSC800525), ceralasertib (AZD6738, NSC777638), TAK-243 (NSC785004), alisertib (NSC759677), etoposide (NSC141540), topotecan (NSC609699), eribulin (NSC707389), gemcitabine (NSC613327), carboplatin (NSC241240), cisplatin (NSC119875), and SN-38 (NSC673596) were obtained from the National Cancer Institute (NCI) Developmental Therapeutics Program Chemical Repository (32). The FDA-approved anticancer drug set is available from the Developmental Therapeutics Program at https://dtp.cancer.gov/organization/dscb/obtaining/available plates.htm. […] The stock solutions were prepared in dimethyl sulfoxide (DMSO, Sigma-Aldrich, St. Louis, MO, cat. D2650), except for the platinum compounds which were prepared in saline (Quality Biological, Gaithersburg, MD, cat. 114-055-101), at 800-fold the tested concentration and stored at -70 degrees C prior to their use. All drugs and investigational agents were tested over a range starting from a high concentration at or near the clinical Cmax and decreasing in half-log increments. If the clinical Cmax for an agent had not been determined, the highest concentration tested was 10 microM (Table 1).
Cell Culture. All cells were maintained in an incubator at 37 degrees C and 5% CO2 with 95% humidity. The PDC lines were cultured according to standard operating procedures established by the NCI PDMR (https://pdmr.cancer.gov). Briefly, all PDCs were thawed and cultured in Matrigel-coated flasks prepared with a working solution of 1X Ham's F-12 nutrient mix, without supplementation (Invitrogen, Waltham, MA, cat. 11765054), 100 U/mL penicillin-streptomycin (Invitrogen, cat. 15140122), and 2.5% Matrigel (Corning Inc., Corning, NY, cat. 354248) for the first three passages. All PDCs were cultured in complete DMEM/F-12 media containing advanced DMEM/F-12 (Invitrogen, cat. 12634028), 4.9% defined fetal bovine serum, heat inactivated (HyClone Laboratories Inc., Logan, UT, cat. SH30070.03HI), 389 ng/mL hydrocortisone (Sigma-Aldrich, cat. H4001), 9.7 ng/mL human EGF recombinant protein (Invitrogen, cat. PHG0313), 23.4 microg/mL adenine (Sigma-Aldrich, cat. A2786), 97.3 U/mL penicillin-streptomycin (Invitrogen, cat. 15140122), 1.9 mM L-glutamine (Invitrogen, cat. 25030081), and 9.7 microM Y-27632 dihydrochloride (Tocris Bioscience, Bristol, United Kingdom, cat. 1254). The PDCs were cultured in complete DMEM/F12 media without 10 microM Y-27632 dihydrochloride for at least two passages prior to the screen. The established cell lines NCI-H1341 and […] were cultured in DMEM/F-12, HEPES (Invitrogen, cat. 11330032), 5% defined fetal bovine serum (HyClone Laboratories Inc., cat. SH30070.03), ITS premix universal culture supplement [insulin (5 microg/mL), transferrin (5 microg/mL), and selenious acid (5 ng/mL)] […]

[1] = second compound 0.1 µM, first compound 0.00316 µM
[2] = second compound 0.1 µM, first compound 0.01 µM
[3] = second compound 0.1 µM, first compound 0.0316 µM
[4] = second compound 0.1 µM, first compound 0.1 µM
[5] = second compound 0.316 µM, first compound 0.00316 µM
[6] = second compound 0.316 µM, first compound 0.01 µM
[7] = second compound 0.316 µM, first compound 0.0316 µM
[8] = second compound 0.316 µM, first compound 0.1 µM
[9] = second compound 1 µM, first compound 0.00316 µM
[10] = second compound 1 µM, first compound 0.01 µM
[11] = second compound 1 µM, first compound 0.0316 µM
[12] = second compound 1 µM, first compound 0.1 µM
[13] = second compound 3.16 µM, first compound 0.00316 µM
[14] = second compound 3.16 µM, first compound 0.01 µM
[15] = second compound 3.16 µM, first compound 0.0316 µM
[16] = second compound 3.16 µM, first compound 0.1 µM
[17] = second compound 10 µM, first compound 0.00316 µM
[18] = second compound 10 µM, first compound 0.01 µM
[19] = second compound 10 µM, first compound 0.0316 µM
[20] = second compound 10 µM, first compound 0.1 µM
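Also: exposure lasted 7 days after dosing on day 3 of spheroid growth.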

SMILES	IC50 (second compound 0.1 µM)	IC50 (second compound 0.316 µM)	IC50 (second compound 1 µM)	IC50 (second compound 3.16 µM)	IC50 (second compound 10 µM)	viability, T/C [1]	viability, T/C [2]	viability, T/C [3]	viability, T/C [4]	viability, T/C [5]	viability, T/C [6]	viability, T/C [7]	viability, T/C [8]	viability, T/C [9]	viability, T/C [10]	viability, T/C [11]	viability, T/C [12]	viability, T/C [13]	viability, T/C [14]	viability, T/C [15]	also measured
CC[C@@]1(O)C(=O)OCc2c1cc1n(c2=O)Cc2cc3c(CN(C)C)c(O)ccc3nc2-1 + CC(CO)NC(=O)c1cc(-c2ccc(Cl)cc2)nn(-c2cnn(C)c2)c1=O	> 0.1 µM	> 0.1 µM	> 0.1 µM	> 0.1 µM	> 0.1 µM	102%	52.4%	82.2%	78.4%	103%	104%	117%	118%	107%	58.3%	62%	97%	63.6%	81.9%	95.5%	viability, T/C (second compound 0.1 µM, first compound 0.000316 µM): 66.5%; viability, T/C (second compound 0.1 µM, first compound 0.001 µM): 93.5%; viability, T/C (second compound 0.316 µM, first compound 0.000316 µM): 87.9%; viability, T/C (second compound 0.316 µM, first compound 0.001 µM): 100%; viability, T/C (second compound 1 µM, first compound 0.000316 µM): 81.3%; viability, T/C (second compound 1 µM, first compound 0.001 µM): 78%; viability, T/C (second compound 3.16 µM, first compound 0.000316 µM): 73.7%; viability, T/C (second compound 3.16 µM, first compound 0.001 µM): 104%; viability, T/C [16]: 70.5%; viability, T/C (second compound 10 µM, first compound 0.000316 µM): 88.1%; viability, T/C (second compound 10 µM, first compound 0.001 µM): 95%; viability, T/C [17]: 80.5%; viability, T/C [18]: 66.4%; viability, T/C [19]: 113%; viability, T/C [20]: 112%
Nc1ncn(C2CC(O)C(CO)O2)c(=O)n1 (stereo not given) + Cc1cncc(-c2nc(NCCc3c[nH]c4ccccc34)c3ncn(C(C)C)c3n2)c1	> 1 µM	> 1 µM	> 1 µM	> 1 µM	< 0.00316 µM	81.2%	76.9%	76.2%	73.1%	92.2%	89.5%	84.5%	74.1%	92.1%	89.8%	84.8%	77.2%	97.2%	87.5%	104%	viability, T/C (second compound 0.1 µM, first compound 0.316 µM): 77.9%; viability, T/C (second compound 0.1 µM, first compound 1 µM): 67.7%; viability, T/C (second compound 0.316 µM, first compound 0.316 µM): 71.3%; viability, T/C (second compound 0.316 µM, first compound 1 µM): 79.6%; viability, T/C (second compound 1 µM, first compound 0.316 µM): 86.1%; viability, T/C (second compound 1 µM, first compound 1 µM): 78.7%; viability, T/C [16]: 99.8%; viability, T/C (second compound 3.16 µM, first compound 0.316 µM): 103%; viability, T/C (second compound 3.16 µM, first compound 1 µM): 84.2%; viability, T/C [17]: 43.5%; viability, T/C [18]: 42.6%; viability, T/C [19]: 45.2%; viability, T/C [20]: 47.7%; viability, T/C (second compound 10 µM, first compound 0.316 µM): 51.2%; viability, T/C (second compound 10 µM, first compound 1 µM): 55%

— PubChem BioAssay AID1919004 (Molecular Pharmacology Branch, DTP, NCI, 2023)
